Reference: PubChem BioAssay (NCI)
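Results reflect a 48-hour exposure of cells in 96-well plates to compound at five concentrations. GI50 marks 50% less growth. The concentration for full growth arrest is given as TGI.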

What was measured:
Test in all cases: inhibition of tumour cell growth, NCI panel, 48 h
NCI-H460 lung = tested on: NCI-H460 lung
MDA-MB-231 breast = tested on: MDA-MB-231 breast
ACHN renal = tested on: ACHN renal
HOP-62 NSCLC = tested on: HOP-62 NSCLC
KM12 colon = tested on: KM12 colon
OVCAR-3 ovarian = tested on: OVCAR-3 ovarian
IGROV1 ovarian = tested on: IGROV1 ovarian
HCC-2998 colon = tested on: HCC-2998 colon
DU-145 prostate = tested on: DU-145 prostate
MCF7 breast = tested on: MCF7 breast
NCI-H226 lung = tested on: NCI-H226 lung
BT-549 breast = tested on: BT-549 breast
SNB-19 CNS = tested on: SNB-19 CNS
T-47D breast = tested on: T-47D breast
RXF 393 renal = tested on: RXF 393 renal
SK-MEL-28 melanoma = tested on: SK-MEL-28 melanoma
NCI-H23 lung = tested on: NCI-H23 lung
LOX IMVI melanoma = tested on: LOX IMVI melanoma
SF-539 CNS = tested on: SF-539 CNS
U251 CNS = tested on: U251 CNS
SW-620 colon = tested on: SW-620 colon
SF-268 CNS = tested on: SF-268 CNS
SR leukemia = tested on: SR leukemia
SN12C renal = tested on: SN12C renal
SK-MEL-5 melanoma = tested on: SK-MEL-5 melanoma
786-0 renal = tested on: 786-0 renal
HCT-116 colon = tested on: HCT-116 colon
HCT-15 colon = tested on: HCT-15 colon
UO-31 renal = tested on: UO-31 renal
SK-MEL-2 melanoma = tested on: SK-MEL-2 melanoma
SNB-75 CNS = tested on: SNB-75 CNS
NCI/ADR-RES ovarian = tested on: NCI/ADR-RES ovarian
UACC-257 melanoma = tested on: UACC-257 melanoma
OVCAR-8 ovarian = tested on: OVCAR-8 ovarian
TK-10 renal = tested on: TK-10 renal
EKVX NSCLC = tested on: EKVX NSCLC
SF-295 CNS = tested on: SF-295 CNS
SK-OV-3 ovarian = tested on: SK-OV-3 ovarian
COLO 205 colon = tested on: COLO 205 colon
A549 NSCLC = tested on: A549 NSCLC
MALME-3M melanoma = tested on: MALME-3M melanoma
OVCAR-4 ovarian = tested on: OVCAR-4 ovarian
UACC-62 melanoma = tested on: UACC-62 melanoma
NCI-H522 lung = tested on: NCI-H522 lung
K-562 leukemia = tested on: K-562 leukemia
MOLT-4 leukemia = tested on: MOLT-4 leukemia
OVCAR-5 ovarian = tested on: OVCAR-5 ovarian
A498 renal = tested on: A498 renal
MDA-MB-435 = tested on: MDA-MB-435
M14 melanoma = tested on: M14 melanoma
PC-3 prostate = tested on: PC-3 prostate
HL-60(TB) leukemia = tested on: HL-60(TB) leukemia
HT29 colon = tested on: HT29 colon

In the case of `COCC(=O)Oc1cc(-c2ccc(C)cc2C)c(OC(=O)COC)c(-c2ccc(C)cc2C)c1`, the GI50 (NCI-H460 lung) was 0.592 µM, the TGI (NCI-H460 lung) was 13.7 µM and the GI50 (MDA-MB-231 breast) was 6.03 µM. It also gave a TGI (MDA-MB-231 breast) of 26.5 µM, a GI50 (ACHN renal) of 9.07 µM and a TGI (ACHN renal) of over 100 µM. For the same compound, the GI50 (HOP-62 NSCLC) was 11.7 µM, the TGI (HOP-62 NSCLC) was 28.1 µM and the GI50 (KM12 colon) was 4.45 µM. For the same compound, the TGI (KM12 colon) was 19.5 µM, the GI50 (OVCAR-3 ovarian) was 3.64 µM and the TGI (OVCAR-3 ovarian) was 16.5 µM. It also gave a GI50 (IGROV1 ovarian) of 5.56 µM, a TGI (IGROV1 ovarian) of 25.3 µM and a GI50 (HCC-2998 colon) of 13.5 µM. For the same compound, the TGI (HCC-2998 colon) was 28.9 µM, the GI50 (DU-145 prostate) was 10.3 µM and the TGI (DU-145 prostate) was 30.2 µM. For the same compound, the GI50 (MCF7 breast) was 4.75 µM, the TGI (MCF7 breast) was 51.4 µM and the GI50 (NCI-H226 lung) was 8.59 µM. It also gave a TGI (NCI-H226 lung) of 46.9 µM, a GI50 (BT-549 breast) of 7.7 µM and a TGI (BT-549 breast) of 22.9 µM. For the same compound, the GI50 (SNB-19 CNS) was 11.9 µM, the TGI (SNB-19 CNS) was 43.6 µM and the GI50 (T-47D breast) was 4.52 µM. It also gave a TGI (T-47D breast) of 54.9 µM, a GI50 (RXF 393 renal) of 11.2 µM and a TGI (RXF 393 renal) of 46.1 µM. For the same compound, the GI50 (SK-MEL-28 melanoma) was 11.2 µM, the TGI (SK-MEL-28 melanoma) was 23.6 µM and the GI50 (NCI-H23 lung) was 5.61 µM. It also gave a TGI (NCI-H23 lung) of 23.4 µM, a GI50 (LOX IMVI melanoma) of 1.12 µM and a TGI (LOX IMVI melanoma) of 15.5 µM. The GI50 (SF-539 CNS) was 12 µM, the TGI (SF-539 CNS) was 28.8 µM and the GI50 (U251 CNS) was 2.02 µM. The TGI (U251 CNS) was 23 µM, the GI50 (SW-620 colon) was 5.09 µM and the TGI (SW-620 colon) was 18.3 µM. It also gave a GI50 (SF-268 CNS) of 3.91 µM, a TGI (SF-268 CNS) of 23.9 µM and a GI50 (SR leukemia) of 1.59 µM. The TGI (SR leukemia) was over 100 µM, the GI50 (SN12C renal) was 9.11 µM and the TGI (SN12C renal) was 28.7 µM. For the same compound, the GI50 (SK-MEL-5 melanoma) was 2.04 µM, the TGI (SK-MEL-5 melanoma) was 15.7 µM and the GI50 (786-0 renal) was 10.7 µM. For the same compound, the TGI (786-0 renal) was 48.3 µM, the GI50 (HCT-116 colon) was 0.797 µM and the TGI (HCT-116 colon) was 14.4 µM. For the same compound, the GI50 (HCT-15 colon) was 0.58 µM, the TGI (HCT-15 colon) was over 100 µM and the GI50 (UO-31 renal) was 2.47 µM. For the same compound, the TGI (UO-31 renal) was 15.5 µM, the GI50 (SK-MEL-2 melanoma) was 14.7 µM and the TGI (SK-MEL-2 melanoma) was 33.9 µM. For the same compound, the GI50 (SNB-75 CNS) was 3.22 µM, the TGI (SNB-75 CNS) was 20.4 µM and the GI50 (NCI/ADR-RES ovarian) was 5.84 µM. The TGI (NCI/ADR-RES ovarian) was 55.3 µM, the GI50 (UACC-257 melanoma) was 8.23 µM and the TGI (UACC-257 melanoma) was 35.9 µM. The GI50 (OVCAR-8 ovarian) was 4.51 µM, the TGI (OVCAR-8 ovarian) was 90.3 µM and the GI50 (TK-10 renal) was 20.4 µM. It also gave a TGI (TK-10 renal) of over 100 µM, a GI50 (EKVX NSCLC) of 4.36 µM and a TGI (EKVX NSCLC) of 58.9 µM. It also gave a GI50 (SF-295 CNS) of 5.58 µM, a TGI (SF-295 CNS) of 29.6 µM and a GI50 (SK-OV-3 ovarian) of 13.2 µM. It also gave a TGI (SK-OV-3 ovarian) of 61.5 µM, a GI50 (COLO 205 colon) of 8.76 µM and a TGI (COLO 205 colon) of 23.8 µM. It also gave a GI50 (A549 NSCLC) of 4.73 µM, a TGI (A549 NSCLC) of 29.1 µM and a GI50 (MALME-3M melanoma) of 9.2 µM. The TGI (MALME-3M melanoma) was 25.5 µM, the GI50 (OVCAR-4 ovarian) was 3.33 µM and the TGI (OVCAR-4 ovarian) was 23.6 µM. The GI50 (UACC-62 melanoma) was 3.43 µM, the TGI (UACC-62 melanoma) was 31.9 µM and the GI50 (NCI-H522 lung) was 4.07 µM. It also gave a TGI (NCI-H522 lung) of 18.3 µM, a GI50 (K-562 leukemia) of 3.56 µM and a TGI (K-562 leukemia) of over 100 µM. The GI50 (MOLT-4 leukemia) was 2.96 µM, the TGI (MOLT-4 leukemia) was over 100 µM and the GI50 (OVCAR-5 ovarian) was 21.7 µM. It also gave a TGI (OVCAR-5 ovarian) of 61 µM, a GI50 (A498 renal) of 5.57 µM and a TGI (A498 renal) of 19.9 µM. The GI50 (MDA-MB-435) was 6.62 µM, the TGI (MDA-MB-435) was 30.2 µM and the GI50 (M14 melanoma) was 7.69 µM. It also gave a TGI (M14 melanoma) of 21.6 µM, a GI50 (PC-3 prostate) of 0.824 µM and a TGI (PC-3 prostate) of 35.1 µM. It also gave a GI50 (HL-60(TB) leukemia) of 2.21 µM, a TGI (HL-60(TB) leukemia) of 77.4 µM and a GI50 (HT29 colon) of 4.02 µM. The TGI (HT29 colon) was 21.8 µM.
